Patent US8304258B2, “Methods of producing monoclonal antibodies specific for human hepcidin” (DRG International, Inc., priority 2002, dated 2012)

What was measured:
[1] = target: T1, Ferroportin-GFP (Fpn-GFP) (Mus musculus, UniProt Q9JHI9); assay: Fpn-GFP internalization in HEK293-Fpn cells, epi-fluorescence microscopy; assay type: cell-based
T1 construct: expressed in transfected cells; host or cells: EcR293 cells (resulting HEK293-Fpn cells), induced with ponasterone for 24 h
T1 sequence (Q9JHI9 1-570): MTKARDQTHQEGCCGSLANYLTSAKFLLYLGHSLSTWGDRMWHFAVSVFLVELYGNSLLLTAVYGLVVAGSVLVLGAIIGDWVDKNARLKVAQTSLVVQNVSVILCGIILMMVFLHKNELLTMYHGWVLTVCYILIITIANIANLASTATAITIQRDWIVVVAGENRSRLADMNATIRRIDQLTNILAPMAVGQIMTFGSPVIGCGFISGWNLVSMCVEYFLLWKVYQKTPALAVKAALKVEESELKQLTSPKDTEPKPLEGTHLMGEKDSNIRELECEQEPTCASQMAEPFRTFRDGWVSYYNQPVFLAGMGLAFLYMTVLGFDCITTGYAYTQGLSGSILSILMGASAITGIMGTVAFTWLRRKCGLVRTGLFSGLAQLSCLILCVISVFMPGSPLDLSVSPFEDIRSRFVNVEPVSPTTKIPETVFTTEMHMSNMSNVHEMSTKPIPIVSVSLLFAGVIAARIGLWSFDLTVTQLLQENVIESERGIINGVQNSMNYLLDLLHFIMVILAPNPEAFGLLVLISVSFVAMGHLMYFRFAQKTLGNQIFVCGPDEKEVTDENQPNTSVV
Description: In one embodiment, the antibodies of the instant invention (e.g., the antibodies capable of binding SEQ ID NO:2, SEQ ID NO:3, SEQ ID NO:4, SEQ ID NO:5) may be used to inactivate hepcidin. In one embodiment, EcR293 cells were stably transfected with a plasmid containing an ecdysone-regulated Ferroportin-GFP (Fpn-GFP) construct (Nemeth et al. Science 306:2090-2093, (2004)). In resulting HEK293-Fpn cells bioactive hepcidin binds to ferroportin and specifically induces the internalization of Fpn-GFP. Briefly, Fpn-GFP was induced by ponasterone treatment for 24 h. Cells were then incubated with 0.1 to 0.5 μM purified human hepcidin (from urine) for 6 h and imaged by epi-fluorescence microscopy. […] When hepcidin was absent from the medium, there was no internalization of Fpn-GFP.
cR293 cells were stably transfected with a plasmid containing an ecdysone-regulated Ferroportin-GFP (Fpn-GFP) construct. In resulting HEK293-Fpn cells bioactive hepcidin binds to ferroportin and specifically induces the internalization of Fpn-GFP. Briefly, Fpn-GFP was induced by ponasterone treatment for 24 h. Cells were then incubated with 0.1 to 0.5 μM purified human hepcidin (from urine) for 6 h and imaged by epi-fluorescence microscopy.

[2] = test system: hepcidin expression in RINm5F cells; assay: Hepcidin expression in RINm5F cells by quantitative RT-PCR after stimulation; assay type: cell-based, rat
Protocol: (§1) RINM5F cells were grown in RPMI1640 media (PAA, Austria) containing L-glutamine, supplemented with 10% (vol/vol) heat inactivated fetal calf serum, penicillin (100 units/ml) and streptomycin (100 μg/mL). Cells were cultivated at 37° C. in 5% CO2. Cells were incubated with increasing concentrations of FENTA from 1 μM up to 65 μM for 72 hours and with 100 mM glucose (Merck, Darstadt, Germany) for up to 8 hours. After stimulation experiments, total rna or proteins were extracted from RINM5F cells and analyzed by quantitative PCR and immunoblot assays.
The regulation of hepcidin expression in RINm5F cells was analyzed upon exposure to iron, since iron regulates hepcidin expression in the liver. The regulatory effect of iron on hepcidin gene expression was measured in these cells under various FENTA concentrations using quantitative RT-PCR as described, for example, in Gehrke et al., Blood 102: 371-376 (2003). A 2-step reverse transcriptase-polymerase chain reaction (RT-PCR) was performed using the Lightcycler system and relative quantification software version 1.0 (ROCHE Molecular Biochemicals; Mannheim, Germany). […] In a second step, transcripts of hepcidin were amplified in duplicates with specific sense and antisense primers. all transcripts were detected using SYBR GREEN I according to manufacturer's instructions and were normalized to β-actin as internal control.

RINm5F cells = assay: Neutral red cytotoxicity assay in RINm5F cells; assay type: cell-based, rat; details: FeNTA concentrations used, 3 days after iron stimulation
Protocol: (A): Hepcidin expression in RINm5F cells after iron (FeNTA) stimulation using quantitative RT-PCR (n=5) (1 μM FeNTA: P<0.01; 3 μM: P<0.001; 10 μM: P<0.002; 65 μM: P<0.05). (B): Cytotoxicity of FeNTA in RINm5F cells measured by neutral red assay 3 days after iron stimulation. […] (C): Immunoblot analysis of iron stimulated RINm5F cells showing hepcidin immunoreactivity at the range of 10 kDa. […] The second immunoreactive band at 20 kDa may reflect a dimeric type of hepcidin.
(§2) In these experiments, protein extracts were incubated for 7 min at 94° C. in sample buffer with 4% (wt/vol) SDS (Merck, Darmstadt, Germany), 50 mM TRIS-HCl (PH 8.45), 1 mM EDTA, 3.24 mM dithiothreitol (ROTH, Karlsruhe, Germany), 12.5% (wt/vol) glycerol (Merck, Darmstadt, Germany), and 0.002% Bromophenol blue (Merck, Darmstadt, Germany). To detect hepcidin, a 16.5% Tricine-SDS-polyacrylamide gel was used.

[3] = test system: hepcidin protein in RINm5F cells; assay: Immunoblot analysis of hepcidin in stimulated RINm5F cells; assay type: cell-based, rat
Protocol: as §1, §2

## Chemically synthesized hepcidin: hepcidin synthesized chemically
[1]; same experiments as with urine hepcidin
  efficiency in inducing Fpn-GFP internalization compared with hepcidin purified from urine: as efficient in inducing Fpn-GFP internalization as hepcidin purified from urine

## hepcidin: purified human hepcidin (from urine), bioactive peptide hormone binding ferroportin
[1]; 0.1 μM hepcidin
  time to Fpn internalization: ≤ 1 h
[1]; 0.1 to 0.5 μM purified human hepcidin (from urine), 6 h
  distribution of Fpn-GFP after addition of hepcidin: changed the distribution of Fpn-GFP from the cell surface to punctuate intracellular vesicles
[1]; HEK293-Fpn cells, within 1 h
  concentration of hepcidin that induced Fpn internalization: ≤ 0.1 µM

## O=C([O-])CN(CC(=O)[O-])CC(=O)[O-].[Fe+3] [FeNTA, Iron Nitrilotriacetate]
[2]; FeNTA 1 μM up to 10 μM, 72 hours
  hepcidin-mRNA regulation: significant up-regulation of hepcidin-mRNA up to three-fold
[2]; FeNTA 65 μM or higher
  hepcidin expression: down-regulated
RINm5F cells
  cytotoxicity in neutral red assay: no cytotoxicity exists under the iron concentrations used
RINm5F cells; listed as FENTA
  cytotoxicity in neutral red assay: not cytotoxic
[3]; 3 μM FeNTA
  hepcidin immunoreactivity at 10 kDa compared to control: up-regulation of hepcidin
[3]; 65 μM FeNTA
  hepcidin immunoreactivity at 10 kDa compared to control: down-regulation
